Series [1] concerns photoreceptors. Briefly: MNU-induced photoreceptor degeneration in adult C57Bl/6 mice (TUNEL, immunostaining, ERG). It is filed as in vivo, mouse. The protocol: Preparation of Donor Cells and Recipients. Donor cells were prepared from P0-P2 retinas of the neural retina leucine zipper (Nrl)-GFP transgenic mice (See Example 1). Nrl is a basic motif-leucine zipper transcription factor that is preferentially expressed in rod photoreceptors and required for rod differentiation (See, e.g., Swaroop et al., Proc Natl Acad Sci USA. 1992; 89:266-270; and Mears et al., Nat Genet. 2001; 29:447-452). The Nrl promoter directed expression of enhanced green fluorescent protein (EGFP) specifically to new-born rod precursors and mature rods in the Nrl-GFP transgenic mouse. Eyes were enucleated, and the neural retinas dissected and dissociated with a Papain-Protease-DNase solution. N-methyl-N-nitrosourea (MNU; Sigma, St. Louis, Mo.), an alkylating agent that induces photoreceptor degeneration by forming 7-methyldeoxyguanosine DNA adducts in the nuclei of photoreceptors, was administered at a dose of 60 mg/kg to adult C57B1/6 mice by intraperitoneal injection 7 days before transplantation (See, e.g., Doonan et al., J Neurosci. 2003; 23:5723-5731; Ogino et al., Toxicol Pathol. 1993; 21:21-25; Yuge et al., In Vivo. 1996; 10:483-488).
Tissue Processing. Two or four weeks after surgery, the animals were perfused transcardially with 4% paraformaldehyde (Merck, Darmstadt, Germany) in 0.1 M phosphate buffer after sedation with ketamine (15 mg/kg). Eyes were removed and immersion fixed with 4% paraformaldehyde at 4° C. overnight and then in 25% sucrose-PBS to cryoprotect. The specimens were embedded in an optimal cutting temperature compound (Miles, Elkhart, Ind.) and consecutive 12-μm frozen sections were sliced on a cryostat.
Immunofluorescence. […]
Electrophysiology. […] Animals were placed on a regulated heating pad under dim red illumination and electroretinograms (ERGs) were recorded with a gold loop electrode placed on the corneal surface maintained with 3% methylcellulose gel. […] The amplitude of the a-wave was measured from the prestimulus baseline to the a-wave trough. […]

Series [2] deals with photoreceptors. The conditions noted are these: MNU 60 mg/kg i.p.; cited from earlier work.
Series [3] relates to CEP290. The conditions noted are these: previous studies; cited from earlier work.
Series [4] deals with NRL. The experiment in a line: NRL expression in serum-starved Y79 cells (immunoblot, Northern blot). The class given is cell-based, human. To be noted: serum-starved Y79 cells, 10 μM RA. On the procedure: Cell Culture. Y79 human retinoblastoma cells (ATCC HTB 18) and HEK293 (ATCC CRL-1573) were maintained in RPMI 1640 and Dulbecco's modified Eagle's medium, respectively, under standard conditions with 15% (v/v) fetal bovine serum (FBS), penicillin G (100 units/ml), and streptomycin (100 μg/ml) at 37° C. and 5% CO2. For serum starvation and RA treatment experiments, Y79 cells (5×10^4) were cultured in the presence or absence of the serum (same batch of serum was used in all the experiments), at RA, 9-cis-RA, cycloheximide (CHX), and 4-(E-2-(5,6,7,8-tetrahydro-5,5,8,8-tetramethyl-2-naphthalenl)-1-propenyl) benzoic acid (TTNPB) at indicated concentrations. Me2SO or ethanol was added to Y79 cells in lieu of the soluble factors as negative control.
For protein synthesis inhibition experiments, Y79 cells were serum-starved for 24 h, and then simultaneously treated with RA and CHX for 8 or 24 h. NRL expression was analyzed by immunoblotting. In another set of experiments, serum-starved Y79 cells were first incubated with RA alone for 8 or 24 h and then CHX was added. Cell extracts were then analyzed 24 h later for examining NRL expression by immunoblotting.
(§1) Protein Expression Analysis.
In general terms: In western blotting, separated proteins are transferred to a membrane and probed.

Series [5] has as its system NRL. The experiment in a line: NRL expression in newborn rat retinal cell cultures (immunoblot). The class given is cell-based. The protocol:
Primary cultures of new-born rat retinal cells and enriched adult porcine photoreceptors were prepared as described (See Traverso et al., (2003) Investig. Ophthalmol. Vis. Sci. 44, 4550-4558). For newborn rat retinal cultures, rat pups were anesthetized and decapitated, the retinas dissected into CO2-independent Dulbecco's modified Eagle's medium and chopped into small fragments. The fragments were washed twice in Ca/Mg-free PBS and then digested in PBS containing 0.1% papain for 25 min at 37° C. Tissue was dissociated by repeated passage through flame polished Pasteur pipettes, then seeded into tissue culture plates precoated with laminin, in Neurobasal A medium (Invitrogen) containing 2% FBS. After 48 h, medium was changed to a chemically defined formula (Neurobasal A supplemented with B27) for a further 48 h, and then treated.
Experimental Treatments and Immunochemistry. […] RA was added to test wells (1, 5, 10, 20, and 40 μM, stock solution prepared in Me2SO, 10 μl/well).
as §1

Series [6] has as its system mouse Nrl promoter. The experiment in a line: Nrl promoter-luciferase assay in serum-deprived Y79 cells. The class given is cell-based, human. The conditions noted are these: pGL3-NI and pGL3-Nm constructs (with putative RAREs), 10 μM RA, 24 h. The source says: (§2) Plasmid Constructs. DNA fragments of 2.5 kb (Nl), 1.2 kb (Nm), and 200 by (Ns) from the 5′-flanking region of the mouse Nrl promoter (GENBANK: AY526079; (See Akimoto et al., (2006) Proc. Natl. Acad. Sci. U.S.A. 103, 3890-3895) were amplified and cloned into pGL3-basic vector (Promega, Madison, Wis.) in-frame with the luciferase reporter gene. The following site-directed mutants of the Nrl promoter were generated from pGL3-Nl using the QUICKCHANGE site-directed mutagenesis kit (Stratagene, La Jolla, Calif.) and sequence-verified: pGL3-Nl-mutIII-1, pGL3-Nl-mutIII-2, and pGL3-Nl-mutII-1, containing deletion of the putative RAREs at positions −781 to −767, −709 to −700, and −453 to −443, respectively.
Transient Transfection and Luciferase Assay. Transient transfection of Y79 cells was performed using FUGENE 6 reagent (Roche Diagnostics, Indianapolis, Ind.). Prior to transfection, cells were serum-starved 24 h in OPTI-MEM (Invitrogen), diluted to 1.5×10^5 cells in 250 μl and seeded into 24-well plates. Transfection was performed with 0.5 μg of promoter-luciferase construct and 1.5 μl of FUGENE 6. […] Luciferase activity was measured using the Luciferase Assay System (Promega, Madison, Wis.). Experiments were repeated at least three times, and the luciferase activity was calculated as a fold change from the base line luciferase activity obtained in the presence of vector only.

For series [7], the system named is NRL. Briefly: NRL expression in adult pig photoreceptor cultures (immunoblot, immunocytochemistry). The conditions noted are these: 24 h.
Series [8] has as its system mouse Nrl promoter. The experiment in a line: Nrl promoter-luciferase assay in HEK293 cells. It is filed as cell-based. The conditions noted are these: dose-dependent response.
Text: as §2
Transient transfection of HEK293 (ATCC CRL-1573) cells was performed using LIPOFECTAMINE (Invitrogen) according to the manufacturer's instructions. The wild type and mutant Nrl promoter-luciferase constructs, and pCMV-β-gal were added to the cells at a concentration of 0.1 μg and 0.05 μg, respectively. After 3 h, 100 μl of Dulbecco's modified Eagle's medium with 0 or 500 nM at RA was added to each well. Cells were harvested after 24 h in 100 μl of GLO lysis buffer (Promega), and luciferase activity was measured.

For series [9], the system named is chondroitin sulfate proteoglycans (CSPG). Briefly: CS-56 staining of glial scar after subretinal injection with or without ChABC. It is filed as in vivo, mouse. To be noted: ChABC 0.025 U/μl, 1 μl subretinal, MNU-treated mice. The protocol: Transplantation Procedure. One μl of dissociated Nrl-GFP+ photoreceptor cell suspension (1.0×10^5 cells/μl each) without or with chondroitinase ABC (ChABC) (0.025 U/μl, Wako, Tokyo, Japan) (Nrl group, Nrl/ChABC group, respectively) or 1 μl of PBS (sham group) was drawn into a tapered glass pipette connected to a modified tube and injected through the sclera into the subretinal space. The procedure was performed under surgical microscope.
Immunofluorescence. Sections were washed in PBS, preincubated with a blocking solution (containing 20% skim milk and 0.3% Triton X-100 in PBS) for 30 minutes, and then incubated overnight at 4° C. with primary antibodies diluted in a blocking solution (containing 5% skim milk and 0.3% Triton X-100 in PBS). The primary antibodies and working dilutions were as follows: mouse and rabbit anti-GFP (1:500, Molecular Probes, Eugene, Oreg.), mouse monoclonal CS-56 IgM antibody (1:200, Sigma) that reacts specifically with chondroitin sulfate containing proteoglycans, and anti-vesicular glutamate transporter 1 (VGluT1; 1:100, Chemicon, Hampshire, UK), a marker for active presynaptic formation (See, e.g., Fujiyama et al., J Comp Neurol. 2003; 465:234-249). Sections were incubated for 90 minutes with secondary antibodies diluted 1:500 in PBS containing 5% skim milk and 0.3% Triton X-100. […]

Entries after “also recorded” stand apart in the source; their conditions may differ. Where only a bound is given, the exact number is not on record here.

On to `CN(N=O)C(N)=O` [MNU, N-methyl-N-nitrosourea], for which the “dark-adapted ERG response” value in series [1] (1 week after single i.p. MNU 60 mg/kg) was “does not detect a response; also recorded: no responses were detectable”. Besides, the “state of outer nuclear layer / photoreceptor layer” value in series [1] (1 week after single i.p. MNU 60 mg/kg, VGluT1 and Cytox blue staining) is listed as “completely destroyed; also recorded: essentially destroyed”. Moreover, in [1] (2 days after single i.p. MNU 60 mg/kg), the “TUNEL labeling of retina” value is “nuclear labeling in the majority of the photoreceptor cells”. Moreover, the “time to apoptosis in all photoreceptors after injection” value in [2] was at most 1 week.
Regarding `COC(=O)Nc1nc2ccc(C(=O)c3cccs3)cc2[nH]1` [nocodazole], the “centrosomal localization of CEP290 after microtubule depolymerization” value in [3] was “does not alter centrosomal localization of CEP290”.
Consider `CC1=C(/C=C/C(C)=C/C=C/C(C)=C/C(=O)O)C(C)(C)CCC1` [at RA], for which, in series [4], the “incubation time after which an increase in NRL protein was observed” value worked out at 8 h. Moreover, the toxicity in culture entry in series [5] (doses above 5-20 μM (40 μM RA), newborn rat retina cells) is given as “some toxicity; also recorded: toxic for cell survival”. In addition, the “RA concentration giving maximal effects on NRL expression” value in series [5] (newborn rat retinal cultures, 24 h) was in the range of 5 to 20 µM; in [7] it was 5 to 20 µM. Also, the “increase in luciferase activity” value in [6] is above 2 fold. Besides, in [8], the “at RA concentration of maximum effect on pGL3-Nl luciferase activity” value is listed as 500 nM.
On to chondroitinase ABC [ChABC], for which the “degradation of CSPG in the ECM of the glial scar at the injection site (CS-56 staining)” value in series [9] was “substantially, if not completely, degraded”.

These data come from patent publication US20100136537A1, “PHOTORECEPTOR PRECURSOR CELLS” (THE REGENTS OF THE UNIVERSITY OF MICHIGAN, priority 2006, published 2010).
